{
  "source": "patent US11931335B2",
  "about": "“Enhancing autophagy or increasing longevity by administration of urolithins or precursors thereof” (Amazentis SA, priority 2012, dated 2024)",
  "key": {"[1]": {"tested_on": "undifferentiated C2C12 mouse myoblasts", "experiment": "LC3B flow cytometry in C2C12 myoblasts", "assay_type": "cell-based", "conditions": "for LC3B expression (LC3B-FITC fluorescence): 10 μM, 50 μM and 100 μM, 24 hours, FIG. 25", "procedure": "To determine the ability of urolithin A to induce autophagy in mouse muscle cells, undifferentiated C2C12 mouse myoblasts were seeded in T25 flasks and incubated overnight. Cells were incubated in 5% CO2 at 37° C. These cells were treated with one of the urolithins-urolithin A (UA), urolithin B (UB), urolithin C (UC) or urolithin D (UD)—dissolved in a 0.1% solution of DMSO for 24 hours. In one experiment UA, UB, UC and UD were dosed at a concentration of 100 μM for C2C12 myoblast treatment. In a separate study, C2C12 myoblasts were incubated at increasing concentrations of UA (10 μM, 50 μM and 100 μM). For each experiment a control culture was treated with 0.1% DMSO for the same period and served as the untreated control. In the final 30 minutes of incubation, lysosome degradation inhibitor was added to the culture. The cells were then washed with phosphate buffer solution and then treated with a 1% solution of trypsin enzyme to remove the adhesive cells from the cell culture dishes. The cells were then treated with EMD Millipore selective permeabilization reagent to permeabilize the cells so as to make the internal cellular proteins accessible to antibody treatment. Cells were then incubated with antibody to LC3B according to kit protocol (EMD Millipore FlowCellect™ Autophagy LC3 Antibody-based Assay Kit (Cat no. FCCH100171)). The cells were then washed and resuspended in the kit assay buffer. The resulting cells were then run through a flow cytometer and LC3B-FITC fluorescence was quantified to measure the level of LC3B in C2C12 cells for the various treatments. When cells undergo autophagy their intracellular levels of LC3-II increase which is detected by this method. This autophagy can be detected by fluorescent antibody labeling of LC3B, which can be measured quantitatively using flow cytometry. An increase in cellular autophagy is reflected by an increasing signal in the histogram of LC3B FITC."}, "[2]": {"tested_on": "aak-2(ok524) mutant C. elegans", "assay_type": "in vivo", "conditions": "aak-2 (o524); for Lifespan extension compared to control (%): 50 μM UA vs 1% DMSO", "procedure": "Lifespan assays were performed with (A) wild-type (N2), (B) sir-2.1(ok434) mutant, (C) aak-2(ok524), (D) daf-16(mu86), (E) eat-2(ad465) and (F) daf-2(e1370) mutant strains of C. elegans maintained during their full life on plates supplemented with either 50 μM of urolithin A or with a control treatment and seeded with OP50 bacteria. Control plates without urolithin A contained an equivalent concentration of DMSO. Worm lifespan assays were performed at 20° C.\naak-2/AMPK: aak-2 encodes the mammalian homolog of the AMP-dependent kinase AMPK in C. elegans."}, "[3]": {"tested_on": "Human Aortic Endothelial Cells (HAOEC)", "experiment": "Autophagy western blot in human aortic endothelial cells", "assay_type": "cell-based", "conditions": "16 hours", "procedure": "Human Aortic Endothelial Cells (HAOEC) are primary endothelial cells isolated from normal human aorta. They were sourced from Cell Applications Inc. (CAI), San Diego, USA and obtained cryopreserved at the second passage from the European Collection of Cell Cultures (ECACC). The cells were thawed and cultured with Endothelial Cell Growth Medium, provided by the ECACC, catalog number 06091509 (CAI No. 211-500), in a 37° C., 5% CO2 humidified incubator; media was changed 24 hours after thawing. Endothelial Cell Growth Medium was changed every other day until the cells reached 80% confluency. Cells were then subcultured into four 6-well dishes and after overnight incubation were treated with different concentrations of urolithin A, 10 μM, 20 μM, and 50 μM, or a DMSO control for a period of 16 hours, 3 wells per treatment. Control cells were treated with DMSO at an equivalent final concentration for the same period and served as the untreated control.\nAt the end of treatment, cells were lysed with RIPA buffer and applied to SDS-PAGE and analyzed by western blot. Protein expression levels were examined for autophagy-related proteins LC3-I and LC3-II (Cell Signaling antibody #4108), and p62 (Cell Signaling antibody #5114). The housekeeping protein, HSP90 (BD Transduction Laboratories antibody #610418) level was measured as a loading control."}, "[4]": {"tested_on": "C. elegans fed vps-34 RNAi", "experiment": "Lifespan with RNAi against vps-34", "assay_type": "in vivo", "conditions": "50 μM; vs empty vector; FIG. 10B", "procedure": "Lifespan tests were performed as described. Mouchiroud L et al. (2011) Aging Cell 10:39-54. Briefly, worms were observed using a Nikon SMZ1500 stereomicroscope (Nikon, Melville, NY, USA). Briefly, 10 L4 worms were transferred on plates containing NGM medium with vehicle (DMSO 0.1%, final concentration) or urolithin A dissolved in DMSO (final concentration 50 μM) and seeded with E. coli RNAi clones as indicated. After 3 days (corresponding to day 0), newly developed 60-100 L4 worms were used per condition, scored and transferred to fresh plates every 3 days starting from day 1 (young adult worms). All lifespan experiments were performed at 20° C.\nSurvival analyses were performed using the Kaplan Meier method and the significance of differences between survival curves calculated using the log rank test. Differences between two groups were assessed using two-tailed t-tests. Analysis of variance, assessed by Bonferroni's multiple comparison test, was used when comparing more than two groups. The statistical software used was GraphPad Prism 5 (GraphPad Software, Inc.) and all p-values <0.05 were considered significant.\nGene silencing was carried out as previously described by using the RNA interference (RNAi) process. Mouchiroud L et al. (2011) Aging Cell 10:39-54. In C. elegans, RNAi is made by feeding. […]"}},
  "note": "Entries after “also recorded” stand apart in the source; their conditions may differ. Like-named read-outs stand apart in the source and are kept apart here.",
  "data": [
    {"molecule": "O=c1oc2cc(O)ccc2c2ccc(O)cc12", "note": "[Urolithin A, urolithin A]", "values": [
      {"measurement": "LC3B expression (LC3B-FITC fluorescence)", "setting": "[1]", "result": "dose dependent"},
      {"measurement": "LC3B expression (LC3B-FITC fluorescence)", "setting": "[1]; listed as UA", "result": "dose response"},
      {"measurement": "LC3B signal (shift of the histogram)", "setting": "[1]; 100 μM, 24 hrs, FIG. 26, listed as UA", "result": "increasing signal of LC3B; also recorded: increase in autophagy"},
      {"measurement": "Median lifespan", "setting": "[2]; 50 μM UA", "result": 18, "unit": "days"},
      {"measurement": "Lifespan extension compared to control (%)", "setting": "[2]", "result": 12.5, "unit": "%"},
      {"measurement": "Lifespan extension compared to control (%)", "setting": "[2]; listed as UA", "result": "+12.5%"},
      {"measurement": "levels of p62", "setting": "[3]; 10 μM, 20 μM, and 50 μM", "result": "decrease"},
      {"measurement": "ratio of LC3-II to LC3-I, induction", "setting": "[3]; 50 μM of urolithin A, FIG. 18", "result": "≤ 3", "unit": "fold"},
      {"measurement": "lifespan extension by urolithin A under vps-34 RNAi", "setting": "[4]", "result": "suppressed; also recorded: totally suppress the lifespan phenotype"}
    ]}
  ]
}
